Reference: paper PMC5862408, “CCR2 antagonism leads to marked reduction in proteinuria and glomerular injury in murine models of focal segmental glomerulosclerosis (FSGS)” (PLoS ONE, 2018)
Values joined by “and” are separate entries in the source; they are usually repeats but may differ in a detail not shown here. Equal entries are not always repeated.

How the values were obtained:
[1] = system: diabetic nephropathy patients; conditions: 52 weeks of treatment; cited from earlier work
[2] = system: 5/6 nephrectomized 129X1/SvJ mice; test: 5/6 nephrectomy model (comparison with ET1/AT1 dual inhibitor); format: in vivo, mouse; conditions: for UAER / UACR: mean ± SEM; for UACR (mg/mg) at Week 1 / UACR (mg/mg) at Week 4 / UAER (mg/day) at Week 1 / UAER (mg/day) at Week 2 / UAER (mg/day) at Week 4: individual mice; for UACR: CCX872 90 mg/kg s.c. once daily, RAAS blocker 5 mg/kg orally once daily, Sparsentan 90 mg/kg orally twice daily
Method: (§1) Chemotaxis, calcium mobilization, and radio-ligand binding assays were conducted as previously described. Inhibition values (IC50) were calculated using non-linear regression with a one-site competition model (GraphPad Prism, GraphPad Software, La Jolla, CA). Urinary albumin was measured by ELISA (Bethyl Labs, Montgomery, TX). Urinary and serum creatinine was measured by LC-MS/MS at ChemoCentryx. The urinary albumin excretion rate (UAER) was calculated as micrograms per 24 h. Blood urea nitrogen (BUN) was measured by Antech Diagnostics (Morrisville, NC). Serum cystatin C was measured by ELISA (R&D Systems, Minneapolis, MN). The albumin to creatinine ratio (ACR) was calculated as micrograms of albumin per milligram of creatinine.
(§2) 5/6 nephrectomy mice on the 129X1/SvJ background were obtained from Jackson Laboratories, and were received at ChemoCentryx after the surgery was performed at JAX. Under isoflurane anesthesia, two-thirds of the left kidney mass was removed at 5–6 weeks of age. Then, after 7 to 10 days, a right unilateral nephrectomy was performed. The mice were fed a standard chow and had free access to water. Three weeks after the 5/6 nephrectomy, the mice were grouped to ensure a similar starting UAER in each treatment group. CCX872 or its vehicle were dosed subcutaneously once daily formulated in 1% HPMC. The RAAS blocker Candesartan (AK Scientific, Union City, CA) and its vehicle were dosed orally once daily at 5 mg/kg formulated in water. Sparsentan, the dual-acting receptor antagonist for endothelin (A type) and angiotensin II receptors (Type 1) was synthesized at ChemoCentryx and was dosed orally twice daily at 90 mg/kg formulated in 1% HPMC. The mice were housed individually in metabolic cages for quantitative collection of urinary albumin and creatinine.
Fig 4 Relative efficacy of CCR2, RAAS, and endothelin receptor blockade in the 5/6 nephrectomy model as assessed by UACR (mg/mg). Mice underwent a 5/6 nephrectomy as described in Methods. Three weeks post-surgery the mice were randomized to the indicated groups for the study period of 4 weeks. Urine was collected for measurement of UACR at the indicated time points, as described in Methods. Error bars represent standard error of the mean. N = 10/group at week 1, and N = 6 at week 4. p values were calculated between each drug-treated group and vehicle treated animals (asterisk), or between the CCX872/RAAS blocker combination and RAAS blocker alone (octothorpe) using student’s t-test (GraphPad Prism).

[3] = system: patients with FSGS; set-up: method as in announced by Retrophin; conditions: 8-week time point, 109 patients with FSGS, compared to irbesartan; ref announced by Retrophin; cited from earlier work
[4] = system: Adriamycin challenged female Balb/c mice; test: Adriamycin induced nephropathy model; format: in vivo, mouse; conditions: individual mice
[5] = system: 5/6 nephrectomized 129X1/SvJ mice; test: 5/6 nephrectomy model (CCX872, RAAS blocker, combination); format: in vivo, mouse; conditions: for BUN / Serum Creatinine / Serum Cystatin C: terminal bleed; for UACR: CCX872 90 mg/kg s.c., RAAS blocker 5 mg/kg orally, once daily
Method: as §1
as §2, with “creatinine. […]” for “creatinine.”
Fig 3 CCX872 improves renal function as assessed by UACR, serum creatinine, BUN and cystatin C in 5/6 nephrectomized mice. Mice underwent a 5/6 nephrectomy as described in Methods. Three weeks post-surgery the mice were randomized to the groups indicated above for the study period of 4 weeks. Urine was collected for measurement of albumin and creatinine at the indicated time points, and UACR was calculated as described in Methods. Serum creatinine, BUN and Cystatin C were measured at time of terminal bleed after four weeks of treatment. Error bars represent standard error of the mean. N = 10/group, and N = 6 at week 3. p values were calculated between each drug-treated group and vehicle treated animals (asterisk), or between CCX872/RAAS blocker combination and RAAS blocker alone (octothorpe) using student’s t-test (GraphPad Prism).

[6] = system: Adriamycin challenged female Balb/c mice; test: Adriamycin induced nephropathy model; format: in vivo, mouse; conditions: for UAER: mean ± SEM
Method: Chemotaxis, calcium mobilization, and radio-ligand binding assays were conducted as previously described. Inhibition values (IC50) were calculated using non-linear regression with a one-site competition model (GraphPad Prism, GraphPad Software, La Jolla, CA). Urinary albumin was measured by ELISA (Bethyl Labs, Montgomery, TX). Urinary and serum creatinine was measured by LC-MS/MS at ChemoCentryx. The urinary albumin excretion rate (UAER) was calculated as micrograms per 24 h. Blood urea nitrogen (BUN) was measured by Antech Diagnostics (Morrisville, NC). Serum cystatin C was measured by ELISA (R&D Systems, Minneapolis, MN). The albumin to creatinine ratio (ACR) was calculated as micrograms of albumin per milligram of creatinine. These experiments were performed using female Balb/c mice (Jackson Laboratories, Bar Harbor, Maine). The mice were kept on standard chow and had free access to water. At age of 10 weeks, 7.5 mg/kg Adriamycin (Selleck Chemicals, Houston, TX) or saline (control) was injected via tail vein in isoflurane-anesthetized animals (day 0). CCX872 and/or vehicle were dosed subcutaneously once daily at 90 mg/kg formulated in 1% HPMC. The RAAS blocker Candesartan (AK Scientific, Union City, CA) and its vehicle were dosed orally once daily at 5 mg/kg, formulated in water. All dosing started 2 hours prior Adriamycin challenge. The mice were housed individually in metabolic cages for quantitative collection of urinary albumin and creatinine.  Fig 2 CCX872 improves renal function as assessed by UACR, serum creatinine and BUN in adriamycin challenged mice. Mice were challenged with Adriamycin as described in Methods. Test compound treatment was begun one hour prior to the Adriamycin challenge. Urine was collected for measurement of UAER (S3 Table) and creatinine at the indicated time points, and UACR was calculated as described in Methods. Serum creatinine and BUN were measured at time of terminal bleed after two weeks of treatment. Error bars represent standard error of the mean. N = 10/group at week 1, and N = 8 at week 2. p values were calculated on each treated group to vehicle treated animals using student’s t-test (GraphPad Prism).

[7] = four-week time point, mean ± SEM
[8] = individual mice, listed as RAASi
[9] = terminal bleed, individual mice

Cc1cnc(C(=O)c2ncnc3[nH]ccc23)c(NS(=O)(=O)c2ccc(Cl)c(C(F)(F)F)c2)c1 [CCX140-B]
proteinuria [1]: decreased and sustained reduction of proteinuria

CCCCC1=NC2(CCCC2)C(=O)N1Cc1ccc(-c2ccccc2S(=O)(=O)Nc2noc(C)c2C)c(COCC)c1 [ET1/AT2 Dual Blocker, Sparsentan]
UAER ([2]; Week 1): 2.64 ± 0.75, p=0.036 mg/day
UAER ([2]; Week 2): 1.54 ± 2.15, p=0.01 mg/day
UAER ([2]; Week 4): 1.15 ± 1.47, p=0.001 mg/day
UACR (mg/mg) at Week 1 ([2]; listed as ET1/AT1 Dual): 1.081 mg/mg and 2.162 mg/mg and 2.864 mg/mg and 2.81 mg/mg and 3.047 mg/mg and 2.101 mg/mg and 2.214 mg/mg and 0.6904 mg/mg and 5.004 mg/mg
UACR (mg/mg) at Week 4 ([2]; listed as ET1/AT1 Dual): 2.388 mg/mg and 0.4973 mg/mg and 0.675 mg/mg and 0.2626 mg/mg and 0.5926 mg/mg and 2.095 mg/mg and 0.7726 mg/mg
UAER (mg/day) at Week 1 ([2]; listed as ET1/AT1 Dual): 0.8511 mg/day and 1.523 mg/day and 1.648 mg/day and 2.037 mg/day and 2.769 mg/day and 1.544 mg/day and 1.531 mg/day and 0.6428 mg/day and 5.6 mg/day
UAER (mg/day) at Week 2 ([2]; listed as ET1/AT1 Dual): 1.304 mg/day and 1.518 mg/day and 4.44 mg/day and 2.237 mg/day and 1.797 mg/day and 4.071 mg/day and 1.476 mg/day and 0.485 mg/day and 1.88 mg/day
UAER (mg/day) at Week 4 ([2]; listed as ET1/AT1 Dual): 1.009 mg/day and 1.391 mg/day and 0.6452 mg/day and 0.283 mg/day and 0.9648 mg/day and 0.8066 mg/day and 1.065 mg/day
UACR reduction vs vehicle ([2]; week one): 93.5%
UACR ([2]; week one): 2.44 ± 0.42 mg/mg
proteinuria (primary endpoint) [3]: statistically significant reduction in proteinuria as compared to irbesartan

CCOc1nc2cccc(C(=O)O)c2n1Cc1ccc(-c2ccccc2-c2nnn[nH]2)cc1 [RAAS Blocker, Candesartan]
UAER ([2]; Week 1): 9.38 ± 7.70, p=0.27 mg/day
UAER ([2]; Week 2): 7.72 ± 6.37, p=0.06 mg/day
UAER ([2]; Week 4): 1.74 ± 2.49, p=0.02 mg/day
UACR (mg/mg) at Week 1 [2]: 0.2531 mg/mg and 1.465 mg/mg and 2.285 mg/mg and 73.9074 mg/mg and 1.319 mg/mg and 7.089 mg/mg and 0.4551 mg/mg and 1.07 mg/mg
UACR (mg/mg) at Week 4 [2]: 0.751 mg/mg and 2.804 mg/mg and 0.2303 mg/mg and 0.9337 mg/mg and 0.4088 mg/mg and 0.9456 mg/mg
UAER (mg/day) at Week 1 [2]: 0.1519 mg/day and 0.9615 mg/day and 2.137 mg/day and 63.0549 mg/day and 1.2792 mg/day and 6.0897 mg/day and 0.4778 mg/day and 0.9119 mg/day
UAER (mg/day) at Week 2 [2]: 0.4333 mg/day and 5.515 mg/day and 1.464 mg/day and 44.8051 mg/day and 0.7469 mg/day and 7.145 mg/day and 0.2974 mg/day and 1.3574 mg/day
UAER (mg/day) at Week 4 [2]: 1.13 mg/day and 3.156 mg/day and 0.298 mg/day and 1.221 mg/day and 0.2117 mg/day and 1.028 mg/day
UACR ([2]; week one): 10.98 ± 9.02 mg/mg
UACR (mg/mg) at Week 1 [4]: 20.0842 mg/mg and 22.2965 mg/mg and 25.3406 mg/mg and 40.1693 mg/mg and 41.555 mg/mg and 302.958 mg/mg and 55.6444 mg/mg and 187.49 mg/mg and 117.091 mg/mg and 7.322 mg/mg
UACR (mg/mg) at Week 2 [4]: 56.294 mg/mg and 76.9257 mg/mg and 96.611 mg/mg and 232.005 mg/mg and 248.91 mg/mg and 18.6549 mg/mg and 102.568 mg/mg and 35.7503 mg/mg
UAER (mg/day) at Week 1 [4]: 10.1862 mg/day and 10.9954 mg/day and 11.0332 mg/day and 14.9575 mg/day and 18.3446 mg/day and 113.025 mg/day and 29.5364 mg/day and 126.741 mg/day and 54.0627 mg/day and 5.677 mg/day
UAER (mg/day) at Week 2 [4]: 28.1393 mg/day and 36.5424 mg/day and 35.6435 mg/day and 176.989 mg/day and 173.035 mg/day and 14.0491 mg/day and 53.4766 mg/day and 17.1116 mg/day
UAER ([5]; Week 1, mean ± SEM): 8.27± 1.89, p=0.03 mg/day
UAER ([5]; Week 2, mean ± SEM): 3.62 ± 1.63, p=0.03 mg/day
UAER ([5]; Week 3, mean ± SEM): 3.32 ± 0.76, p<0.0001 mg/day
BUN [5, 7]: 247.0 ± 16.42 mg/dL
Serum Creatinine [5, 7]: 2.78 ± 0.27 µg/mL
UAER (mg/day) at Week 1 ([5]; individual mice): 2.15 mg/day and 4.699 mg/day and 15.5467 mg/day and 16.4212 mg/day and 15.0186 mg/day and 0.6806 mg/day and 9.638 mg/day and 3.148 mg/day and 4.462 mg/day and 10.9401 mg/day
UAER (mg/day) at Week 2 ([5]; individual mice): 0.7796 mg/day and 9.402 mg/day and 12.4793 mg/day and 1.127 mg/day and 0.5679 mg/day and 1.491 mg/day and 1.407 mg/day and 1.719 mg/day
UAER (mg/day) at Week 3 ([5]; individual mice): 5.801 mg/day and 4.3025 mg/day and 1.247 mg/day and 2.019 mg/day and 1.844 mg/day and 4.699 mg/day
UACR (mg/mg) at Week 1 [5, 8]: 5.748 mg/mg and 5.722 mg/mg and 28.9118 mg/mg and 21.9395 mg/mg and 21.4656 mg/mg and 1.415 mg/mg and 15.8208 mg/mg and 5.683 mg/mg and 7.266 mg/mg and 18.781 mg/mg
UACR (mg/mg) at Week 3 [5, 8]: 7.871 mg/mg and 8.029 mg/mg and 3.677 mg/mg and 3.863 mg/mg and 2.8993 mg/mg and 7.734 mg/mg
Serum Cystatin C ([5]; individual mice): 0.9323 µg/mL and 2.095 µg/mL and 2.201 µg/mL and 1.815 µg/mL and 2.053 µg/mL and 1.1273 µg/mL and 1.429 µg/mL and 1.517 µg/mL and 1.562 µg/mL and 2.118 µg/mL
BUN [5, 8]: 245 mg/dL and 215 mg/dL and 265 mg/dL and 205 mg/dL and 330 mg/dL and 255 mg/dL and 170 mg/dL and 210 mg/dL
Serum Creatinine [5, 8]: 2.46 µg/mL and 1.88 µg/mL and 2.93 µg/mL and 2.22 µg/mL and 2.77 µg/mL and 2.85 µg/mL and 2.01 µg/mL and 5.03 µg/mL and 2.87 µg/mL
Serum Cystatin C ([5]; mean ± SEM): 1.68 ± 0.14 µg/mL
UACR ([5]; week 1, mean ± SEM): 13.28 ± 2.928 mg/mg
UACR ([5]; week 3, mean ± SEM): 5.679 ± 0.99 mg/mg
UAER ([6]; Week 1): 39.46 ± 14.14, p=0.16 mg/day
UAER ([6]; Week 2): 66.87 ± 23.99, p=0.52 mg/day
BUN [6, 9]: 100 mg/dL and 80 mg/dL and 65 mg/dL and 70 mg/dL and 85 mg/dL and 125 mg/dL and 75 mg/dL
Serum Creatinine [6, 9]: 0.927 µg/mL and 1.08 µg/mL and 1.05 µg/mL and 1.06 µg/mL and 0.956 µg/mL and 1.21 µg/mL and 0.91 µg/mL and 1.09 µg/mL and 1.14 µg/mL and 1.35 µg/mL
